These compounds were tested on MAPK phosphorylation (assay: MAPK cell-based phosphorylation assay (ELISA or Western), PANC-1). Settings: Homo sapiens; 10 μM, 6 hours, EGF stimulation, PANC-1.
Description: Cell lines: Tumor-derived pancreatic cancer cell line PANC-1 was purchased from ATCC and were and grown in DMEM-High Glucose supplemented with penicillin (100 U/mL), streptomycin (100 μg/mL), and 10% heat-inactivated FBS at 37° C. in a humidified incubator with 5% CO2.
Method: Cells were plated at 7500 cells/well density in a 96-well plate, allowed 3 hours to adhere to the plate, then starved in DMEM plus 0.5% FBS overnight. The small molecules to be tested were added to the cells in the final concentration of 10 μM in the presence of 0.3% DMSO for 6 hours incubation at 37° C. For IC50 value determination, serial dilutions of compounds were added to cells under the same conditions. Next, cells were stimulated with 1.5 ng/mL EGF for 15 minutes followed by cell fixation with 4% formaldehyde in PBS at room temperature for 20 minutes. Cell-direct ELISA determined phosphorylation level of MAPK.
Cell-direct ELISA: For each well, cells were permeabilized with 0.1% PBS-Triton X-100, quenched with 0.06% H2O2 in 0.1% PBS-Triton X-100, and probed with anti-phospho-MAPK antibodies (R&D Systems) followed by HRP-conjugated secondary antibody (Jackson Immunoresearch, West Grove, PA). Next, a 50 μM solution of the fluorescent substrate AmpliFlu Red (Sigma) was added and incubated at RT for 20 minutes. At the end of the incubation time, phosphorylation level of MAPK was determined by measuring fluorescence at 595 nm using SpectraMax M3 plate reader (Molecular Devices).
Cell lines: Human NSCLC cells NCI-H1975 and NCI-H1299, and tumor-derived pancreatic cancer cell lines Panc-1, MIA-PaCa-2, and BxPC3, were all purchased from American Type Culture Collection and grown in complete RPMI medium (BxPC3, NCI-H1975 and NCI-H1299) or DMEM-High Glucose (Panc1 and MIA-PaCa-2), supplemented with penicillin (100 U/mL), streptomycin (100 μg/mL), and 10% heat-inactivated FBS at 37° C. in a humidified incubator with 5% CO2.
(§1) Method: Cells were plated at 350000 cells/well density in a 12-well plate, allowed 3 hours to adhere to the plate, then starved in the appropriate medium in the presence of 0.5% FBS overnight. The small molecules to be tested were added to the cells in the final concentration of 10 μM in the presence of 0.3% DMSO for 6 hours incubation at 37° C. For IC50 value determination, serial dilutions of compounds were added to cells under the same conditions. Next, cells were stimulated with 1.5 ng/ml EGF for 15 minutes then cells were lysed with lysis buffer containing 1% Triton X-100, EDTA, and Halt™ Protease & Phosphatase Inhibitor Cocktail (Thermo Scientific). Protein concentration was assessed by BCA protein assay (Thermo Scientific). Phosphorylation level of MAPK was determined by western blot.
(§2) Western blot protocol: Equal amounts of protein (15-50 μg) were separated by SDS-PAGE and transferred to nitrocellulose membranes (Invitrogen by Thermo Fisher Scientific). The membrane was stained with Ponceau S Stain (Boston BioProducts) to verify uniform protein loading. Membranes were blocked with 10% milk and phosphorylation levels of MAPK were assessed by incubating overnight at 4° C. with anti-phospho-p44/42 (Thr202/Tyr204) antibody (Cell Signaling) followed by HRP-conjugated secondary antibody (Jackson Immunoresearch, West Grove, PA). Bands were incubated in Amersham ECL Prime Western Blotting Detection Reagent (GE Healthcare) and visualized using the ChemiDoc MP imaging system (Bio-Rad).

| Structure (SMILES) | inhibition at 10 µM [%] |
| --- | --- |
| Cn1ccnc1-c1nc(O)c(O)c(C(=O)NC2CCCC2)n1 [drawing 465] | 0 |
| Cn1ccnc1-c1nc(O)c(O)c(C(=O)N2CCCCC2)n1 [drawing 466] | 0 |
| Cn1ccnc1-c1nc(O)c(O)c(C(=O)NC2CCC2)n1 [drawing 467] | 0 |
| COC(=O)c1nc(-c2nccn2C)nc(O)c1O [drawing 468] | 0 |
| COc1nc(-c2ccccn2)nc(Nc2cnn(C)c2)c1OC [drawing 469] | 0 |
| COCCn1cc(Nc2nc(-c3ccccn3)nc(OC)c2OC)cn1 [drawing 470] | 0 |
| COC1CCN(c2nc(-c3nccn3C)nn3cc(-c4ccccc4)c(-c4ccccc4)c23)C1 (centres unmarked) [drawing 471] | 51 to 75 |

Same assay, conditions: Homo sapiens; 10 μM, PANC-1 (Table 4C)

| Structure (SMILES) | inhibition at 10 µM [%] |
| --- | --- |
| COc1c(O)nc(-c2ccccn2)nc1Oc1ccc(C(=O)N(C)C)cc1 [drawing 479] | 0 |
| COc1c(O)nc(-c2ccccn2)nc1Nc1ccccc1 [drawing 480] | 0 |
| CCn1cc(Nc2nc(-c3ccccn3)nc(O)c2OC)cn1 [drawing 481] | 0 |
| CCOc1cccc(Nc2nc(-c3ccccn3)nc(O)c2OC)c1 [drawing 482] | 0 |
| COc1cccc(-c2sc3nc(-c4nccn4C)nc(NC4CCC(OC)C4)c3c2-c2ccccc2)c1F (centres unmarked) [drawing 483] | 76 to 100 |
| COc1cccc(-c2sc3nc(-c4nccn4C)nc(N[C@@H]4CC[C@H](OC)C4)c3c2-c2ccccc2)c1F [drawing 484] | 76 to 100 |
| COC1CCC(Nc2nc(-c3nccn3C)nc3sc(-c4cccc(O)c4F)c(-c4ccccc4)c23)C1 (centres unmarked) [drawing 485] | 76 to 100 |
| COc1c(F)cccc1-c1sc2nc(-c3nccn3C)nc(NC3CCC(OC)C3)c2c1-c1ccccc1 (centres unmarked) [drawing 486] | 76 to 100 |
| COc1c(F)cccc1-c1sc2nc(-c3nccn3C)nc(N[C@@H]3CC[C@H](OC)C3)c2c1-c1ccccc1 [drawing 487] | 76 to 100 |
| COC1CCC(Nc2nc(-c3nccn3C)nc3sc(-c4cccc5[nH]ncc45)c(-c4ccccc4)c23)C1 (centres unmarked) [drawing 488] | 76 to 100 |
| CO[C@H]1CC[C@@H](Nc2nc(-c3nccn3C)nc3sc(-c4cccc5[nH]ncc45)c(-c4ccccc4)c23)C1 [drawing 489] | 76 to 100 |
| COc1cccc(-c2sc3nc(-c4nccn4C)nc(N4CCC(OC)C4)c3c2-c2ccccc2)c1F (centres unmarked) [drawing 490] | 76 to 100 |
| COc1cccc(-c2sc3nc(-c4nccn4C)nc(N[C@H]4C[C@@H](OC)C4)c3c2-c2ccccc2)c1F [drawing 491] | 76 to 100 |
| CO[C@H]1C[C@@H](Nc2nc(-c3nccn3C)nc3sc(-c4cnn(C)c4)c(-c4ccccc4)c23)C1 [drawing 492] | 76 to 100 |
| COc1cccc(-c2sc3nc(-c4nccn4C)nc(NC4CCC(OC)C4)c3c2C)c1F (centres unmarked) [drawing 493] | 76 to 100 |
| COc1cccc(-c2sc3nc(-c4nccn4C)nc(N[C@@H]4CC[C@H](OC)C4)c3c2C)c1F [drawing 494] | 76 to 100 |
| COC1CCC(Nc2nc(-c3nccn3C)nc3sc(-c4cccc5[nH]ncc45)c(C)c23)C1 (centres unmarked) [drawing 495] | 76 to 100 |
| COCCn1ccnc1-c1nc(O)c2scc(-c3ccc(OCC(C)C)nc3)c2n1 [drawing 498] | 76 to 100 |
| CC(C)COc1ccc(-c2csc3c(O)nc(-c4nccn4Cc4ccccn4)nc23)cn1 [drawing 499] | 76 to 100 |
| COc1cccc(Cn2ccnc2-c2nc(O)c3scc(-c4ccc(OCC(C)C)nc4)c3n2)c1 [drawing 500] | 76 to 100 |
| CO[C@H]1CC[C@@H](Nc2nc(-c3nccn3C)nc(C(=O)N3CCc4c(O)cccc4C3)c2C)C1 [drawing 501] | 26 to 50 |
| CO[C@H]1C[C@@H](Nc2nc(-c3ccccn3)nc3sccc23)C1 [drawing 502] | 1 to 25 |
| CO[C@H]1C[C@@H](Nc2nc(-c3nccn3C)nc3sccc23)C1 [drawing 503] | 1 to 25 |
| Cn1ccc(-c2sc3nc(-c4nccn4C)nc(O)c3c2-c2ccccc2)n1 [drawing 504] | 0 |
| CO[C@H]1C[C@@H](Nc2nc(-c3nccn3C)nc3sc(-c4ccn(C)n4)c(-c4ccccc4)c23)C1 [drawing 505] | 76 to 100 |
| CO[C@H]1C[C@H](Nc2nc(-c3nccn3C)nc3sc(-c4ccn(C)n4)c(-c4ccccc4)c23)C1 [drawing 506] | 76 to 100 |
| CN(C)CCOCCNc1nc(-c2nccn2C)nc2sc(-c3ccn(C)n3)c(-c3ccccc3)c12 [drawing 507] | 0 |

The compounds below were run on AKT phosphorylation (assay: Western AKT cell-based phosphorylation assay, PANC-1). Settings: Homo sapiens, 6 hours, EGF stimulation, PANC-1.
Description: Human tumor-derived pancreatic cancer cell line Panc-1 was purchased from American Type Culture Collection and grown in complete DMEM-High Glucose supplemented with penicillin (100 U/mL), streptomycin (100 μg/mL), and 10% heat-inactivated FBS at 37° C. in a humidified incubator with 5% CO2.
as §1, with “C.” for “C. For IC50 value determination, serial dilutions of compounds were added to cells under the same conditions.”, “Akt” for “MAPK”
as §2, with “Akt” for “MAPK”, “anti-phospho-Akt (Ser473)” for “anti-phospho-p44/42 (Thr202/Tyr204)”

| Structure (SMILES) | inhibition at 10 µM [%] |
| --- | --- |
| Cn1ccnc1-c1nc(O)c(O)c(C(=O)NC2CCCC2)n1 [drawing 465] | 0 |
| Cn1ccnc1-c1nc(O)c(O)c(C(=O)N2CCCCC2)n1 [drawing 466] | 0 |
| Cn1ccnc1-c1nc(O)c(O)c(C(=O)NC2CCC2)n1 [drawing 467] | 0 |
| COC(=O)c1nc(-c2nccn2C)nc(O)c1O [drawing 468] | 0 |
| COc1nc(-c2ccccn2)nc(Nc2cnn(C)c2)c1OC [drawing 469] | 0 |
| COCCn1cc(Nc2nc(-c3ccccn3)nc(OC)c2OC)cn1 [drawing 470] | 0 |
| COC1CCN(c2nc(-c3nccn3C)nn3cc(-c4ccccc4)c(-c4ccccc4)c23)C1 (centres unmarked) [drawing 471] | 0 |

Same assay, conditions: Homo sapiens, PANC-1 (Table 4C)

| Structure (SMILES) | inhibition at 10 µM [%] |
| --- | --- |
| COc1c(O)nc(-c2ccccn2)nc1Oc1ccc(C(=O)N(C)C)cc1 [drawing 479] | 0 |
| COc1c(O)nc(-c2ccccn2)nc1Nc1ccccc1 [drawing 480] | 0 |
| CCn1cc(Nc2nc(-c3ccccn3)nc(O)c2OC)cn1 [drawing 481] | 0 |
| CCOc1cccc(Nc2nc(-c3ccccn3)nc(O)c2OC)c1 [drawing 482] | 0 |
| COc1cccc(-c2sc3nc(-c4nccn4C)nc(NC4CCC(OC)C4)c3c2-c2ccccc2)c1F (centres unmarked) [drawing 483] | 76 to 100 |
| COc1cccc(-c2sc3nc(-c4nccn4C)nc(N[C@@H]4CC[C@H](OC)C4)c3c2-c2ccccc2)c1F [drawing 484] | 76 to 100 |
| COC1CCC(Nc2nc(-c3nccn3C)nc3sc(-c4cccc(O)c4F)c(-c4ccccc4)c23)C1 (centres unmarked) [drawing 485] | 0 |
| COc1c(F)cccc1-c1sc2nc(-c3nccn3C)nc(NC3CCC(OC)C3)c2c1-c1ccccc1 (centres unmarked) [drawing 486] | 76 to 100 |
| COc1c(F)cccc1-c1sc2nc(-c3nccn3C)nc(N[C@@H]3CC[C@H](OC)C3)c2c1-c1ccccc1 [drawing 487] | 76 to 100 |
| COC1CCC(Nc2nc(-c3nccn3C)nc3sc(-c4cccc5[nH]ncc45)c(-c4ccccc4)c23)C1 (centres unmarked) [drawing 488] | 76 to 100 |
| CO[C@H]1CC[C@@H](Nc2nc(-c3nccn3C)nc3sc(-c4cccc5[nH]ncc45)c(-c4ccccc4)c23)C1 [drawing 489] | 0 |
| COc1cccc(-c2sc3nc(-c4nccn4C)nc(N4CCC(OC)C4)c3c2-c2ccccc2)c1F (centres unmarked) [drawing 490] | 76 to 100 |
| COc1cccc(-c2sc3nc(-c4nccn4C)nc(N[C@H]4C[C@@H](OC)C4)c3c2-c2ccccc2)c1F [drawing 491] | 76 to 100 |
| CO[C@H]1C[C@@H](Nc2nc(-c3nccn3C)nc3sc(-c4cnn(C)c4)c(-c4ccccc4)c23)C1 [drawing 492] | 26 to 50 |
| COc1cccc(-c2sc3nc(-c4nccn4C)nc(NC4CCC(OC)C4)c3c2C)c1F (centres unmarked) [drawing 493] | 0 |
| COc1cccc(-c2sc3nc(-c4nccn4C)nc(N[C@@H]4CC[C@H](OC)C4)c3c2C)c1F [drawing 494] | 0 |
| COC1CCC(Nc2nc(-c3nccn3C)nc3sc(-c4cccc5[nH]ncc45)c(C)c23)C1 (centres unmarked) [drawing 495] | 76 to 100 |
| COCCn1ccnc1-c1nc(O)c2scc(-c3ccc(OCC(C)C)nc3)c2n1 [drawing 498] | 0 |
| CC(C)COc1ccc(-c2csc3c(O)nc(-c4nccn4Cc4ccccn4)nc23)cn1 [drawing 499] | 0 |
| COc1cccc(Cn2ccnc2-c2nc(O)c3scc(-c4ccc(OCC(C)C)nc4)c3n2)c1 [drawing 500] | 0 |
| CO[C@H]1CC[C@@H](Nc2nc(-c3nccn3C)nc(C(=O)N3CCc4c(O)cccc4C3)c2C)C1 [drawing 501] | 1 to 25 |
| CO[C@H]1C[C@@H](Nc2nc(-c3ccccn3)nc3sccc23)C1 [drawing 502] | 0 |
| CO[C@H]1C[C@@H](Nc2nc(-c3nccn3C)nc3sccc23)C1 [drawing 503] | 0 |
| Cn1ccc(-c2sc3nc(-c4nccn4C)nc(O)c3c2-c2ccccc2)n1 [drawing 504] | 0 |
| CO[C@H]1C[C@@H](Nc2nc(-c3nccn3C)nc3sc(-c4ccn(C)n4)c(-c4ccccc4)c23)C1 [drawing 505] | 76 to 100 |
| CO[C@H]1C[C@H](Nc2nc(-c3nccn3C)nc3sc(-c4ccn(C)n4)c(-c4ccccc4)c23)C1 [drawing 506] | 76 to 100 |
| CN(C)CCOCCNc1nc(-c2nccn2C)nc2sc(-c3ccn(C)n3)c(-c3ccccc3)c12 [drawing 507] | 0 |

Reference: patent publication US20250296938A1, “Compounds that Interact with the Ras Superfamily for the Treatment of Cancers, Inflammatory Diseases, Rasopathies, and Fibrotic Disease” (SHY Therapeutics, LLC, priority 2018, published 2025)
